PMC10458253, “Unraveling the In Vitro Toxicity Profile of Psychedelic 2C Phenethylamines and Their N-Benzylphenethylamine (NBOMe) Analogues” (Pharmaceuticals, 2023)

Test system: differentiated SH-SY5Y cells
Assay: Mitochondrial membrane potential (JC-1 dye)
Assay type: cell-based
Conditions: 24 h, 0–500 µM, vs control
Description: Mitochondrial transmembrane potential (Δѱm) was determined using the JC-1 dye, which can selectively enter the mitochondria and reversibly change the dye’s fluorescent properties depending on the Δѱm. At high Δѱm conditions—representative of healthy cells—JC-1 forms J-aggregates generating red fluorescence. At low Δѱm conditions—representative of unhealthy or apoptotic cells—JC-1 is predominantly a monomer generating green fluorescence.
The mitochondrial membrane potential was evaluated by using the JC-1 probe. SH-SY5Y cells were seeded and differentiated in 48-well plates and, 6 days after seeding, the cells were exposed to the six drugs (0–500 µM) for 24 h, at 37 °C, in a 5% CO2–95% air atmosphere. Subsequently, the medium was removed, and the cells were incubated with 20 µM JC-1 for 30 min, protected from light, at 37 °C, in a 5% CO2–95% air atmosphere. At the end of the incubation period, the cells were centrifuged (300× g, 5 min at room temperature) and washed (warm HBSS with calcium and magnesium) twice. The fluorescence was then measured in a multi-well plate reader: at 535 nm excitation and 595 nm emission wavelengths for J-aggregates; and at 485 nm excitation and 535 nm emission wavelengths for JC-1 monomers (PowerWaveX BioTek Instruments, USA). […] The results were calculated as red/green fluorescence intensity ratios and expressed as percentages of control cells. […]

SMILES: COc1cc(CCNCc2ccccc2OC)c(OC)cc1Br [25B-NBOMe, 4-Bromo-2,5-dimethoxy-N-(2-methoxybenzyl)-β-phenethylamine]
- JC-1 red/green ratio (mitochondrial membrane potential): the most operative drug in inducing mitochondrial membrane depolarization
